Test results published in PubChem BioAssay (NCI).
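Five concentrations, 48 hours, 96-well plates. Here, GI50 denotes the concentration required for 50% inhibition of growth. TGI denotes the concentration required for complete inhibition of growth.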

Legend:
Assay in all cases: NCI tumour cell line growth inhibition, 48 h
COLO 205 colon = tested on: COLO 205 colon
NCI-H226 lung = tested on: NCI-H226 lung
NCI/ADR-RES ovarian = tested on: NCI/ADR-RES ovarian
OVCAR-8 ovarian = tested on: OVCAR-8 ovarian
PC-3 prostate = tested on: PC-3 prostate
RPMI-8226 leukemia = tested on: RPMI-8226 leukemia
SK-MEL-5 melanoma = tested on: SK-MEL-5 melanoma
SK-OV-3 ovarian = tested on: SK-OV-3 ovarian
SN12C renal = tested on: SN12C renal
TK-10 renal = tested on: TK-10 renal
A549 NSCLC = tested on: A549 NSCLC
DMS 114 small cell lung = tested on: DMS 114 small cell lung
KM20L2 colon = tested on: KM20L2 colon
M19-MEL melanoma = tested on: M19-MEL melanoma

SMILES | TGI (COLO 205 colon) [µM] | TGI (NCI-H226 lung) [µM] | TGI (NCI/ADR-RES ovarian) [µM] | TGI (OVCAR-8 ovarian) [µM] | TGI (PC-3 prostate) [µM] | TGI (RPMI-8226 leukemia) [µM] | TGI (SK-MEL-5 melanoma) [µM] | TGI (SK-OV-3 ovarian) [µM] | TGI (SN12C renal) [µM] | TGI (TK-10 renal) [µM] | TGI (A549 NSCLC) [µM] | TGI (DMS 114 small cell lung) [µM] | TGI (KM20L2 colon) [µM] | TGI (M19-MEL melanoma) [µM] | GI50 (NCI/ADR-RES ovarian) [µM] | GI50 (PC-3 prostate) [µM] | GI50 (SK-MEL-5 melanoma) [µM] | GI50 (SK-OV-3 ovarian) [µM] | GI50 (SN12C renal) [µM] | GI50 (TK-10 renal) [µM]
CC(C)(C)[Si](C)(C)OCC1OC(n2cnc3c(N)ncnc32)CC1O (centres undefined) | > 100 | > 100 | > 100 | > 100 | > 100 | > 100 | > 100 | > 100 | > 100 | > 100 |  |  |  |  |  |  |  |  |  | 
c1coc(CNc2ncnc3[nH]ncc23)c1 | > 100 | > 100 |  | > 100 |  | > 100 | > 100 | > 100 | > 100 | > 100 | > 100 | > 100 | > 100 | > 100 |  |  |  |  |  | 
O=C1NC2=C(CCCC/C2=N\O)C12CCCCC2 |  | > 100 |  |  |  |  |  | > 100 | > 100 | > 100 | > 100 | > 100 | > 100 | > 100 |  |  |  |  |  | 
Brc1ccc(C2CC(c3cccc4ccccc34)=Nc3ccccc3S2)cc1 (centres undefined) | > 100 | > 100 |  | > 100 |  | 51.6 | > 100 | > 100 | > 100 | > 100 | > 100 |  | > 100 | > 100 |  |  |  |  |  | 
O=C1CSC(=S)N1 | > 100 | > 100 | > 100 | > 100 | > 100 | > 100 | > 100 |  | > 100 | > 100 | > 100 |  |  |  |  |  |  |  |  | 
CC(=O)c1ccc2c(c1)c1c(C)c3c[n+](C)ccc3c(C)c1n2C | > 100 | 11.8 | > 100 | 39.9 |  | 30.5 | > 47.8 | > 87 | 4.9 |  | > 100 | 25.6 | > 100 | 23.7 |  |  |  |  |  | 
CCOC(=O)NC(Nc1ncccn1)(C(=O)OCC)C(F)(F)F (centres undefined) | > 100 |  | > 100 | > 100 | > 100 | > 100 | > 100 |  | > 100 | > 100 | > 100 |  |  |  |  |  |  |  |  | 
N#CN=[N+]([O-])c1ccc(C(=O)O)cc1 |  | 40.9 | 39.9 | 37.1 | 31.2 | 35.3 |  | 33 |  | 31.4 | > 100 |  |  |  |  |  |  |  |  | 
Cc1cc(C)n(-c2nsc3ccccc23)n1 | > 100 |  |  | > 100 |  | > 100 | > 100 |  | > 100 | > 100 | > 100 | > 100 | > 100 | > 100 |  |  |  |  |  | 
Cc1ccc2c(c1)C(=O)N(N(C)C)CC(=O)N2 | > 100 | > 100 |  | > 100 |  | > 100 | > 100 | > 100 |  | > 100 | > 100 | > 100 |  | > 100 |  |  |  |  |  | 
Fc1ccc(C2CC(c3cccc(Nc4ccncc4)c3)=NN2c2ccc(Cl)cc2)cc1 (centres undefined) |  |  | 3.48 |  | 3.19 |  | 3.16 | 4.53 | 3.16 | 3.37 |  |  |  |  | 1.82 | 1.63 | 1.76 | 1.98 | 1.67 | 1.74
CSc1nc(NC2OCC(O)C(O)C2O)c(N)c(=O)[nH]1 (centres undefined) | > 100 | > 100 | > 100 | > 100 |  | > 100 | > 100 | > 100 | > 100 |  | > 100 | > 100 | > 100 | > 100 |  |  |  |  |  | 
Cc1cc2c(cc1C)OC(=O)CC2 | > 100 | > 100 | > 100 | > 100 | > 100 | > 100 | > 100 |  | > 100 | > 100 | > 100 |  |  |  |  |  |  |  |  | 
